According to paper PMC9175492 (Molecular pharmaceutics, 2022):
Blank lines part the entries; values can stand above or below the molecule they belong to. Numbered stars: 1 amine (or outer) side, 2 acyl side, 3 side chain; on linkers, the order of the positions; unused ones are H or OH. Bridge positions count the residues as written; N and C are the ends. Square brackets hold non-standard residues; d marks the D form. Peptide text beside a SMILES is read from it. I, II: the chains in the order shown. X2 = NC(=O)[C@H](CCCCNC(=O)COCCOCCN[*:1])N[*:2]; 2Nal = N[C@@H](Cc1ccc2ccccc2c1)C(=O)O; Bta = N[C@@H](Cc1csc2ccccc12)C(=O)O

Legend:
[1] = ratio of cytosolic versus extracellular concentration; cited from earlier work
HeLa cells [2] = test: MTT cell viability assay; assay type: cell-based, human; conditions: 72 h, DMEM 10% FBS
[3] = test system: HeLa (human cervical cancer) cells; conditions: 10% fetal bovine serum; cited from earlier work
HeLa cells [4] = test: Apparent endosomal escape efficiency; assay type: cell-based, human; conditions: reference line, 10% or 1% FBS; defined as 100%
[5] = test system: intracellular Keap1-Nrf2 interaction, ARE reporter-HepG2 cells; test: ARE luciferase reporter assay; assay type: cell-based; conditions: 18 h, 0% FBS, n = 5; for Increase of luciferase activity: 0.31 μM; for Maximal induction of luciferase expression: highest concentration tested (5 μM)

Apparent Endosomal Escape Efficiency (γ, %) (HeLa cells [4]): 100%
SMILES: N=C(N)NCCC[C@@H]1NC(=O)[C@H](Cc2ccc3ccccc3c2)NC(=O)[C@@H](Cc2ccccc2)NC(=O)[C@H](Cc2ccccc2)NC(=O)[C@H](CCC(N)=O)NC(=O)[C@@H](CCCNC(=N)N)NC(=O)[C@H](CCCNC(=N)N)NC(=O)[C@@H](CCCNC(=N)N)NC1=O [CPP12, cyclo(Phe-D-Phe-Nal-Arg-D-Arg-Arg-D-Arg-Gln)] (cyclo([2Nal]R[dR]R[dR]QF[dF]))
Cytosolic entry efficiency [1]: 120%
Loss of viability of HeLa cells (MTT) (HeLa cells [2]; at ⩾550 μM concentration (so in the source)): ~ 40%
Viability of HeLa cells (MTT) (HeLa cells [2]; up to 25 μM): did not reduce the viability
Decrease of cytosolic entry efficiency in the presence of 10% FBS [3]: 25 fold

SMILES: CC(C)C[C@@H]1NC(=O)[C@H](Cc2ccccc2)NC(=O)[C@H](CCC(=O)O)NC(=O)CNC(=O)[C@H]([C@@H](C)O)NC(=O)[C@H](CCC(=O)O)NC(=O)[C@@H]2CCCN2C(=O)[C@H](CC(=O)O)NC(=O)[C@H](CC(C)C)NC(=O)[C@H](CCC(=O)NCCOCCOCC(=O)NCCCC[C@H](NC(=O)CC[C@@H]2NC(=O)[C@@H](CCCNC(=N)N)NC(=O)[C@H](CCCNC(=N)N)NC(=O)[C@@H](CCCNC(=N)N)NC(=O)[C@H](CCCNC(=N)N)NC(=O)[C@H](Cc3csc4ccccc34)NC(=O)[C@@H](Cc3ccccc3)NC(=O)[C@H](Cc3ccccc3)NC2=O)C(N)=O)NC(=O)CNC1=O [CPP12-2-P1] (I: cyclo(FLGELDPETGE) / II: cyclo(F[dF][Bta]R[dR]R[dR]E); linker I:4-II:8 via X2)
Increase of luciferase activity [5]: ~ 2 fold
Maximal induction of luciferase expression [5]: three- to four-fold

SMILES: CC(C)C[C@@H]1NC(=O)[C@H](Cc2ccccc2)NC(=O)[C@H](CCC(=O)O)NC(=O)CNC(=O)[C@H]([C@@H](C)O)NC(=O)[C@H](CCC(=O)O)NC(=O)[C@@H]2CCCN2C(=O)[C@H](CC(=O)O)NC(=O)[C@H](CC(C)C)NC(=O)[C@H](CCC(=O)NCCOCCOCC(=O)NCCCC[C@H](NC(=O)CC[C@@H]2NC(=O)[C@@H](CCCNC(=N)N)NC(=O)[C@H](CCCNC(=N)N)NC(=O)[C@@H](CCCNC(=N)N)NC(=O)[C@H](CCCNC(=N)N)NC(=O)[C@H](Cc3ccc4ccccc4c3)NC(=O)[C@@H](Cc3ccccc3)NC(=O)[C@H](Cc3ccccc3)NC2=O)C(N)=O)NC(=O)CNC1=O [CPP12-P1] (I: cyclo(FLGELDPETGE) / II: cyclo(F[dF][2Nal]R[dR]R[dR]E); linker I:4-II:8 via X2)
Increase of luciferase activity [5]: did not have significant effect
Maximal induction of luciferase expression [5]: three- to four-fold

SMILES: CC(C)C[C@@H]1NC(=O)[C@H](Cc2ccccc2)NC(=O)[C@H](CCC(=O)O)NC(=O)CNC(=O)[C@H]([C@@H](C)O)NC(=O)[C@H](CCC(=O)O)NC(=O)[C@@H]2CCCN2C(=O)[C@H](CC(=O)O)NC(=O)[C@H](CC(C)C)NC(=O)[C@H](CCC(N)=O)NC(=O)CNC1=O [Peptide P1]
Increase in luciferase activity ([5]; up to 5 μM): did not result in significant increase
